From patent US7196119B2, “Development of new selective estrogen receptor modulators” (The Regents of the University of California, priority 2003, dated 2007) come the findings set out here.

“Also recorded” adds a separate entry of the source. Like-named read-outs stand apart in the source and are kept apart here.

The subject of assay [1] is GABAB receptor-mediated outward current in hypothalamic arcuate neurons (membrane associated estrogen receptor). As to the kind of experiment: Whole-cell patch voltage clamp: attenuation of the baclofen-induced GABAB response (GIRK outward current) in hypothalamic slices. In kind it is cell-based, guinea pig.
Assay [2] has as its target T1, full length (ER)α (Homo sapiens, UniProt P03372).
T1 construct: purchased Pan Vera Corp, Madison, Wis., USA
T1 sequence (P03372 1-595): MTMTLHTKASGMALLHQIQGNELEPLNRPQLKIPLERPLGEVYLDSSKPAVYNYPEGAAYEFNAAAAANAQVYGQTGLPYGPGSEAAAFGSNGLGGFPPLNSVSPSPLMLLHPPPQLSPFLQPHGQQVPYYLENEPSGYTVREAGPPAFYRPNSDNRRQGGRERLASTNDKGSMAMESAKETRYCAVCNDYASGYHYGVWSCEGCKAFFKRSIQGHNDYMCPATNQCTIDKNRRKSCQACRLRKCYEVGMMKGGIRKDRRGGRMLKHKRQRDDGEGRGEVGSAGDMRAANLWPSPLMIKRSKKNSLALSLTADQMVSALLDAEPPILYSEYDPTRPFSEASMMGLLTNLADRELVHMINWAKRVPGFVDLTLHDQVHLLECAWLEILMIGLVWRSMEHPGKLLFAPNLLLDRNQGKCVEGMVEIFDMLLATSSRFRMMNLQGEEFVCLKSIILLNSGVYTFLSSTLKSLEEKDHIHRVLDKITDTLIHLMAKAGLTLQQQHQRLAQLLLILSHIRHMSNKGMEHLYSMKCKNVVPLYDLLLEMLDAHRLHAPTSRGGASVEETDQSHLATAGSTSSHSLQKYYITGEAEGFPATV
As to the kind of experiment: Estrogen receptor binding assay (spin column, [3H]estradiol competition).

In assay [3] the target is T2, full length (ER)β (Homo sapiens, UniProt Q92731).
T2 construct: to full length (ER)α or (ER)β*; purchased Pan Vera Corp, Madison, Wis., USA
The assay is described as above.

Assay [4] relates to uteri. As to the kind of experiment: Uterotropic action (uterine size/weight) in ovariectomized mice. Format: in vivo, C57BL/6 mice. Here is the method: Wild-type C57BL/6 mice in these studies were obtained from Jackson laboratories. All animals were maintained under controlled temperature (25° C.) and photoperiod conditions (14-h light, 10-h dark; lights on between 0700 and 2100) with food and water ad libitum. Adult mice were ovariectomized under isoflurane anesthesia, and allowed to recover for 1 week. […] The uteri were collected, weighed and fixed in 4% paraformaldehyde for later histological analysis (data not shown).

T2 sequence (Q92731 whole entry): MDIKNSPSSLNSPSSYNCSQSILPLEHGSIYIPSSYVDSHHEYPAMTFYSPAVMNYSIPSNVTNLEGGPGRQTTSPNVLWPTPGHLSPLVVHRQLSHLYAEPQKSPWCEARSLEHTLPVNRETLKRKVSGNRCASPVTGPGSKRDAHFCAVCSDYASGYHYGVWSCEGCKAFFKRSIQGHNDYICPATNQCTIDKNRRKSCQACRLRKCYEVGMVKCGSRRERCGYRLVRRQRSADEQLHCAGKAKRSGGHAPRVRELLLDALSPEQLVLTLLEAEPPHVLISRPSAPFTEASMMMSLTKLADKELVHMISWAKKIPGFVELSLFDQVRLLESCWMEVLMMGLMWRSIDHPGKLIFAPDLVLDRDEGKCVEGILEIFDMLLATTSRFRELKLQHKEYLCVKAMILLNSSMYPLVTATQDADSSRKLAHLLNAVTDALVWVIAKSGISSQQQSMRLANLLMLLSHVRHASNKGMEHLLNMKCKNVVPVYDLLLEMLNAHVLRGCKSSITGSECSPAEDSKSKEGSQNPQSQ

Regarding 4-hydroxytamoxifen, the “block of the baclofen response” value in assay [1] worked out at 25%. In addition, in assay [2], the “Relative binding affinity (ER)α” value came to 36%. The “Relative binding affinity (ER)β” value in assay [3] was 43%.

With `C[C@]12CC[C@@H]3c4ccc(O)cc4CC[C@H]3[C@@H]1CC[C@H]2O` [17α-estradiol], the “effect on the baclofen (GABAB) response” value in assay [1] is on record as “no effect”.

On to `C[C@]12CC[C@@H]3c4ccc(O)cc4CC[C@H]3[C@@H]1CC[C@@H]2O` [17β-estradiol], for which, in assay [1], the “R2/R1 (second over first baclofen response)” value amounted to 58.6±3.4%, the “decrease in the response to a second application of baclofen” value turned out to be 41% and the “effect on the baclofen (GABAB) response” value is recorded as “no effect”. Regarding `CN(C)CCCn1cc(C2=C(c3c[nH]c4ccccc34)C(=O)NC2=O)c2ccccc21.Cl` [BIS, bisindolylmaleimide I hydrochloride], in assay [1], the “effect on the 17β-estradiol-induced suppression of the GABAB response” value (shortened to “effect … of the GABAB response”) is on record as “nearly eliminated the effects of 17β-estradiol”. As to `CC/C(=C(\C(=O)Nc1ccc(OCCN(C)C)cc1)c1ccc(O)cc1)c1ccccc1` [Compound 8, (E,Z)-2-(4-hydroxyphenyl)-3-phenylpent-2-enoic acid [4-(2-dimethylaminoethoxy)-phenyl]amide], the “effect on the baclofen (GABAB) response” value in assay [1] (10 nM, applied alone) is on record as “as efficacious as 100 nM 17β-estradiol; also recorded: stronger activator of this rapid 17β-estradiol response than 17β-estradiol”; in assay [1] (10 nM, applied alone, listed as compound 8), “inhibited the baclofen response”. Further, the “binding affinity for nuclear (ER)α compared to that of 17β-estradiol” value in assay [2] (fold reduction versus 17β-estradiol) is “approximately one million-fold reduced binding affinity”. Besides, the “Relative binding affinity (ER)α” value in assay [2] (percentage of the potency of 17β-estradiol (IC50 estradiol / IC50 ligand x 100)) is 4.3 × 10^−6%. The uterotropic actions result in assay [4] (2 or 5 μg daily for 2 days) was “no uterotropic actions”.

With `Cl.Cl.O=S(=O)(NCCNC/C=C/c1ccc(Br)cc1)c1cccc2cnccc12` [Compound H89], the “effect … of the GABAB response” value in assay [1] (10 μM, with 17β-estradiol) was “blocked”. On to `N#CC(=C(/N)Sc1ccccc1N)/C(C#N)=C(/N)Sc1ccccc1N` [Compound U0126], for which, in assay [1] (5 μM, with 17β-estradiol), the “effect … of the GABAB response” value is recorded as “did not affect 17β-estradiol inhibition of baclofen responses”. Regarding `COc1ccc2c(c1)CC[C@@H]1[C@@H]2CC[C@]2(C)[C@@H](NCCCCCCN3C(=O)C=CC3=O)CC[C@@H]12` [Compound U73122], in assay [1] (10 μM, with 17β-estradiol), the “effect … of the GABAB response” value is listed as “blocked”. `COc1ccc2c(c1)CC[C@@H]1[C@@H]2CC[C@]2(C)[C@@H](NCCCCCCN3C(=O)CCC3=O)CC[C@@H]12` [Compound U73343]: the “effect … of the GABAB response” value in assay [1] (10 μM, with 17β-estradiol) was “no effect”. Take `CC/C(=C(\c1ccccc1)c1ccc(/C=C/C(=O)O)cc1)c1ccccc1` [GW-5638]: the “effect on the baclofen (GABAB) response” value in assay [1] (1 μM, applied alone) is on record as “significantly more efficacious than 17β-estradiol”. As for `Cn1c2ccccc2c2c3c(c4c5ccccc5n(CCC#N)c4c21)CNC3=O` [Gö6976], in assay [1] (test concentration not given, with 17β-estradiol), the “effect … of the GABAB response” value was “without effect”. Take `C[C@]12CC[C@@H]3c4ccc(O)cc4C[C@@H](CCCCCCCCC[S+]([O-])CCCC(F)(F)C(F)(F)F)[C@H]3[C@@H]1CC[C@@H]2O` (stereo partly shown) [ICI 182, 780]: the “effect on the baclofen (GABAB) response” value in assay [1] (1 μM, applied alone) was “no effect”. Moreover, the “effect … of the GABAB response” value in assay [1] (1 μM, with 17β-estradiol) is “blocked”.

Regarding `COc1cccc(-c2cc(=O)c3ccccc3o2)c1N` [PD98059], the “effect … of the GABAB response” value in assay [1] (10 μM, with 17β-estradiol) is recorded as “did not affect 17β-estradiol inhibition of baclofen responses”. Besides, in assay [1] (PD98059 (10 μM, in the pipette) + 17β-estradiol, baclofen 5 μM), the “R2/R1 (second over first baclofen response)” value amounted to 66.1±11.8%. With `O=C(c1ccc(OCCN2CCCCC2)cc1)c1c(-c2ccc(O)cc2)sc2cc(O)ccc12` [Raloxifene, raloxifene], in assay [1], the “effect on the baclofen (GABAB) response” value is listed as “completely mimicked the actions of 17β-estradiol”.

As for `Nc1ncnc2c1ncn2[C@@H]1O[C@@H]2COP(O)(=S)O[C@H]2[C@H]1O` (stereo partly shown) [Rp-cAMP], in assay [1] (200 μM, dialysis, with 17β-estradiol), the “effect … of the GABAB response” value is given as “abolished”.

`CC/C(=C(\c1ccccc1)c1ccc(OCCN(C)C)cc1)c1ccccc1` [Tamoxifen, tamoxifen]: in assay [1], the “R2/R1 (second over first baclofen response)” value worked out at 60.4±6.6%, the “effect … of the GABAB response” value is on record as “did not attenuate the effects of 17β-estradiol” and the “effect on the baclofen (GABAB) response” value was “inactive”. In the case of `C[C@]12CC[C@@H]3c4ccc(OC(=O)c5ccccc5)cc4CC[C@H]3[C@@H]1CC[C@@H]2O` [estradiol benzoate], in assay [4] (1 μg daily for 2 days, compared with oil vehicle), the uterine size result is reported as “noticeable increase in uterine size”. On to `CC(=O)c1c(O)c(C)c(O)c(Cc2c(O)c3c(c(C(=O)/C=C/c4ccccc4)c2O)OC(C)(C)C=C3)c1O` [rottlerin], for which, in assay [1], the “effect … of the GABAB response” value is “completely blocked”. For Ac-LGLNLKEYNLV-OH [Gq peptide], in assay [1], the “effect … of the GABAB response” value is recorded as “significantly blocked”.
